Measurements from the supplement of paper PMC6045584.
± gives the standard deviation of the averaged measurements.

Legend:
17-AAG = compound: C=CCNC1=C2C[C@@H](C)C[C@H](OC)[C@H](O)[C@@H](C)/C=C(\C)[C@H](OC(N)=O)[C@@H](OC)/C=C\C=C(/C)C(=O)NC(=CC1=O)C2=O [17-AAG]; test: surviving fraction relative to DMSO-only wells; higher = less growth inhibition; conditions: exposure time: 5 days
Procedure, shortened: (§1)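 Log-phase tumour cell lines, 250–500 cells per well in 384-well plates, received inhibitors at 0.5, 1, 5, 10, 50, 100, 500 and 1000 nM continuously for five days, starting 24 hours after seeding. Viability was quantified with CellTiter-Glo luminescence and normalised to the median of DMSO-only wells to give surviving fraction. Three screens were run per line, and a line stayed in only with replicate Pearson r >0.7 and median Z' >0.3.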

FLAVOPIRIDOL = compound: CN1CC[C@H](c2c(O)cc(O)c3c(=O)cc(-c4ccccc4Cl)oc23)[C@H](O)C1 [FLAVOPIRIDOL]; test: as above; conditions: exposure time: 5 days
Procedure, shortened: as §1

Row | Test System | surviving fraction (17-AAG; 0.5 nM) | surviving fraction (17-AAG; 1 nM) | surviving fraction (17-AAG; 5 nM) | surviving fraction (17-AAG; 10 nM) | surviving fraction (17-AAG; 50 nM) | surviving fraction (17-AAG; 100 nM) | surviving fraction (17-AAG; 500 nM) | surviving fraction (17-AAG; 1000 nM) | surviving fraction (FLAVOPIRIDOL; 0.5 nM) | surviving fraction (FLAVOPIRIDOL; 1 nM) | surviving fraction (FLAVOPIRIDOL; 5 nM) | surviving fraction (FLAVOPIRIDOL; 10 nM) | surviving fraction (FLAVOPIRIDOL; 50 nM) | surviving fraction (FLAVOPIRIDOL; 100 nM) | surviving fraction (FLAVOPIRIDOL; 500 nM) | surviving fraction (FLAVOPIRIDOL; 1000 nM)
1 | SCC36 HEADNECK | 0.696 ± 0.065 | 0.767 ± 0.036 | 0.772 ± 0.089 | 0.744 ± 0.093 | 0.518 ± 0.059 | 0.257 ± 0.012 | 0.039 ± 0.0027 | 0.038 ± 0.0044 | 0.982 ± 0.1 | 0.974 ± 0.062 | 1.14 ± 0.16 | 1.24 ± 0.15 | 0.962 ± 0.086 | 0.405 ± 0.0093 | 0.036 ± 0.0035 | 0.032 ± 0.001
2 | SCC47 HEADNECK | 0.908 ± 0.024 | 0.925 ± 0.028 | 0.973 ± 0.014 | 0.939 ± 0.028 | 0.964 ± 0.053 | 0.255 ± 0.032 | 0.095 ± 0.002 | 0.067 ± 0.0044 | 1.18 ± 0.052 | 1.2 ± 0.061 | 1.23 ± 0.093 | 1.15 ± 0.078 | 0.665 ± 0.013 | 0.153 ± 0.043 | 0.039 ± 0.0017 | 0.0353 ± 0.0029
3 | SCC90 HEADNECK | 0.866 ± 0.0092 | 0.923 ± 0.12 | 1 ± 0.11 | 0.862 ± 0.079 | 0.793 ± 0.039 | 0.423 ± 0.064 | 0.206 ± 0.042 | 0.0677 ± 0.013 | 1.07 ± 0.099 | 1.08 ± 0.072 | 1.12 ± 0.085 | 1.07 ± 0.12 | 0.834 ± 0.079 | 0.378 ± 0.086 | 0.0317 ± 0.0057 | 0.027 ± 0.002
4 | SG27 HEADNECK | 1.046 ± 0.0051 | 1.07 ± 0.073 | 0.913 ± 0.039 | 0.93 ± 0.026 | 1.31 ± 0.16 | 1.1 ± 0.24 | 0.274 ± 0.044 | 0.111 ± 0.014 | 1.16 ± 0.11 | 1.04 ± 0.04 | 0.987 ± 0.12 | 1.02 ± 0.3 | 0.844 ± 0.087 | 0.368 ± 0.063 | 0.0753 ± 0.047 | 0.071 ± 0.032
5 | SG28 HEADNECK | 0.93 ± 0.048 | 0.918 ± 0.069 | 0.86 ± 0.05 | 0.776 ± 0.064 | 0.551 ± 0.11 | 0.322 ± 0.016 | 0.0967 ± 0.014 | 0.0863 ± 0.0032 | 1.11 ± 0.096 | 1.1 ± 0.023 | 1.02 ± 0.081 | 1.04 ± 0.099 | 0.594 ± 0.089 | 0.0495 ± 0.0064 | 0.0315 ± 0.00071 | 0.032 ± 0.0028
6 | SG31 HEADNECK | 0.87 ± 0.024 | 0.911 ± 0.052 | 0.874 ± 0.15 | 0.753 ± 0.14 | 0.642 ± 0.064 | 0.302 ± 0.034 | 0.047 ± 0.0092 | 0.0317 ± 0.0029 | 1.51 ± 0.26 | 1.23 ± 0.055 | 0.964 ± 0.096 | 0.988 ± 0.053 | 0.483 ± 0.057 | 0.147 ± 0.038 | 0.0443 ± 0.024 | 0.027 ± 0.0046
7 | SG32 HEADNECK | 0.955 ± 0.12 | 0.834 ± 0.19 | 0.875 ± 0.16 | 0.881 ± 0.14 | 0.528 ± 0.097 | 0.259 ± 0.042 | 0.0457 ± 0.0023 | 0.034 ± 0.0044 | 1.14 ± 0.2 | 1.28 ± 0.092 | 1.07 ± 0.24 | 0.823 ± 0.14 | 0.227 ± 0.063 | 0.048 ± 0.01 | 0.0283 ± 0.013 | 0.0237 ± 0.0046
8 | SG43 HEADNECK | 1.1 ± 0.2 | 1.1 ± 0.22 | 1.05 ± 0.043 | 0.801 ± 0.25 | 0.302 ± 0.069 | 0.074 ± 0.034 | 0.03 ± 0.004 | 0.028 ± 0.0062 | 1.04 ± 0.084 | 1.18 ± 0.081 | 0.885 ± 0.11 | 1.07 ± 0.044 | 0.812 ± 0.049 | 0.562 ± 0.12 | 0.028 ± 0.0062 | 0.033 ± 0.0076
9 | SIHA CERVIX | 1.01 ± 0.073 | 0.939 ± 0.033 | 0.969 ± 0.18 | 0.895 ± 0.032 | 0.581 ± 0.077 | 0.211 ± 0.012 | 0.171 ± 0.0082 | 0.18 ± 0.017 | 1.07 ± 0.041 | 1.05 ± 0.067 | 1.1 ± 0.081 | 1.03 ± 0.032 | 0.714 ± 0.045 | 0.336 ± 0.056 | 0.0243 ± 0.0015 | 0.023 ± 0.001
10 | SJSA1 BONE | 0.84 ± 0.049 | 0.865 ± 0.064 | 0.872 ± 0.023 | 0.846 ± 0.029 | 0.217 ± 0.02 | 0.106 ± 0.0032 | 0.0517 ± 0.0055 | 0.0433 ± 0.0011 | 0.135 ± 0.0078 | 0.272 ± 0.042 | 1.71 ± 0.2 | 0.209 ± 0.011 | 0.0583 ± 0.0059 | 1.74 ± 0.06 | 1.64 ± 0.076 | 0.776 ± 0.074
11 | SKBR3 BREAST | 0.752 ± 0.21 | 0.76 ± 0.055 | 0.497 ± 0.033 | 0.365 ± 0.026 | 0.25 ± 0.018 | 0.205 ± 0.013 | 0.177 ± 0.019 | 0.173 ± 0.0038 | 1.15 ± 0.074 | 1.0877 ± 0.00058 | 1.05 ± 0.022 | 1.06 ± 0.092 | 0.541 ± 0.051 | 0.207 ± 0.035 | 0.032 ± 0.015 | 0.0233 ± 0.0031
12 | SNU475 LIVER | 0.864 ± 0.017 | 0.884 ± 0.013 | 0.792 ± 0.036 | 0.418 ± 0.062 | 0.259 ± 0.02 | 0.234 ± 0.0059 | 0.248 ± 0.013 | 0.23 ± 0.029 | 1.05 ± 0.041 | 1 ± 0.032 | 1.09 ± 0.015 | 1.07 ± 0.072 | 1.02 ± 0.026 | 0.438 ± 0.048 | 0.0423 ± 0.0046 | 0.0407 ± 0.0029
13 | SUM44 BREAST | 0.897 ± 0.02 | 0.863 ± 0.051 | 0.759 ± 0.026 | 0.522 ± 0.026 | 0.539 ± 0.021 | 0.494 ± 0.014 | 0.456 ± 0.017 | 0.464 ± 0.012 | 1.14 ± 0.35 | 1.17 ± 0.16 | 1.22 ± 0.23 | 1.22 ± 0.27 | 1.08 ± 0.24 | 0.283 ± 0.012 | 0.119 ± 0.039 | 0.104 ± 0.036
14 | SUM149 BREAST | 0.924 ± 0.031 | 0.964 ± 0.026 | 0.87 ± 0.053 | 0.35 ± 0.018 | 0.0457 ± 0.0049 | 0.034 ± 0.004 | 0.0233 ± 0.0023 | 0.0237 ± 0.00058 | 0.955 ± 0.031 | 1.07 ± 0.051 | 1.06 ± 0.033 | 1.06 ± 0.087 | 0.681 ± 0.027 | 0.0783 ± 0.029 | 0.018 ± 0.0027 | 0.0183 ± 0.0032
15 | SUM149.B1*.S BREAST | 0.9335 ± 0.0026 | 0.893 ± 0.032 | 0.905 ± 0.038 | 0.83 ± 0.017 | 0.201 ± 0.021 | 0.131 ± 0.018 | 0.083 ± 0.019 | 0.0832 ± 0.014 | 1.1 ± 0.047 | 1.09 ± 0.024 | 1.08 ± 0.063 | 1.044 ± 0.0039 | 1 ± 0.037 | 0.459 ± 0.06 | 0.0462 ± 0.0049 | 0.0412 ± 0.0016
16 | SUM159 BREAST | 1.02 ± 0.087 | 0.998 ± 0.046 | 0.993 ± 0.062 | 0.946 ± 0.044 | 0.0997 ± 0.0055 | 0.0537 ± 0.0086 | 0.053 ± 0.0046 | 0.0527 ± 0.01 | 1.08 ± 0.024 | 1.08 ± 0.021 | 1.09 ± 0.014 | 1.049 ± 0.0055 | 1.08 ± 0.026 | 0.44 ± 0.082 | 0.0913 ± 0.0097 | 0.0957 ± 0.0072
